# Source: paper PMC3927586, “Protein kinase C-delta inactivation inhibits the proliferation and survival of cancer stem cells in culture and in vivo” (BMC Cancer, 2014)
# “And” between values parts separate entries of the source, which are not always exact repeats. Identical values can stand only once. Like-named read-outs stand apart in the source and are kept apart here.
# Assays:
# MCF 10C cells = experiment: Cell proliferation (MTT) of transformed breast epithelial cells; type: cell-based, human; details: for IC50: Homo sapiens, Epithelial cell, 72 hr, read-out: IC50 for the MCF 10C derivative; for concentration with significant effect on MCF 10C cells: as early as 24 hr
# Procedure: Cell proliferation was assessed using an MTT [3-(4,5-dimethylthiazol-2-yl)-2,5-diphenyltetrazolium bromide] assay (Roche, Mannheim, Germany). The number of viable cells growing in a single well on a 96-well microtiter plate was estimated by adding 10 μl of MTT solution (5 mg/ml in phosphate-buffered saline [PBS]). After 4 h of incubation at 37°C, the stain was diluted with 100 μl of dimethyl sulfoxide. The optical densities were quantified at a test wavelength of 570 nm and a reference wavelength of 690 nm on a multiwell spectrophotometer. In some assays, MTS was used as substrate (Promega, Madison, WI), and the absorbance of the product was monitored at 490 nm. Cell enumeration was carried out using a hemocytometer, and viable cells identified by trypan blue exclusion.
# Figure 5 Effects of PKCδ inhibitors on growth and spheroid formation in non-transformed and transformed human breast epithelial cells. MCF 10A cells and cells from the derived tumorigenic line MCF 10C (also called M3), were grown to 80% confluence in 96-well plates and then exposed to rottlerin at concentrations ranging from 1 to 20 μM (A) or to BJE6-106 at concentrations ranging from 0.1 to 20 μM (B). The corresponding equivalent volume of solvent (DMSO) was used as a vehicle control (Vehicle). After 24, 48 and 72 hr of exposure, cell mass was evaluated by MTT assay. Control (vehicle) values were normalized to 100%. Error bars represent SEM. p values for comparison between vehicle and PKCδ inhibitors on MCF 10A cell number only reached significance (p < 0.05) at 48 hr at 20 μM for rottlerin, and at 1 μM for BJE6-106. In contrast, significant effects of the inhibitors on the MCF 10C cells were observed as early as 24 hr for rottlerin (at 5 μM) and for BJE6-106 (at 0.1 μM). (C) MCF 10A and MCF 10C cells were plated at 10,000 cells per well in tumor spheroid media, and spheroid formation was assessed at days 10 and 21. Representative photographs are shown. (D) MCF 10C cells were plated at 10,000 cells per well in tumor spheroid media, in the presence of rottlerin (5 μM), or BJE6-106 (1 μM or 5 μM), or DMSO vehicle (Control). Tumor spheroids were enumerated at 10 days. Representative photographs are shown. (E) Spheroid numbers were normalized to the number of spheroids in the control cultures (assigned an arbitrary value of 100%) and plotted. Error bars represent SEM. p values for comparison between vehicle and rottlerin or BJE6-106 effects on spheroid number were significant (p < 0.001).
# SBcl2 = experiment: Tumor spheroid growth, SBcl2 melanoma; type: cell-based, human; details: p < 0.001
# Procedure: (§1) Tumor self-renewing and anchorage-independent spheroids were obtained by culturing breast cancer cells MCF7, Hs587T and MDA231; melanoma cells SBcl2 and FM6; human breast cancer stem cells and pancreatic cancer stem cells in stem cell-selective conditions according to the manufacturer’s instructions (StemCell Technologies, Tukwila, WA). Briefly, cancer and cancer stem cells were propagated in 6-well ultra-low adherent plates (Corning) in Complete MammoCult Medium (Human) by adding 50 mL of MammoCult Proliferation Supplements to 450 mL of MammoCult Basal Medium (StemCell Technologies). The following were added to obtain Complete MammoCult Medium: 4 ug/mL Heparin (StemCell Technologies), 0.48 μg/mL hydrocortisone (StemCell Technologies), 200 U penicillin/ml; and 200 μg streptomycin/ml (Invitrogen).
# DU145 = experiment: Tumor spheroid growth, DU145 prostate cancer; type: cell-based, human; details: p < 0.001
# recombinant PKCδ = molecular target: T1, recombinant PKCδ (Homo sapiens, UniProt Q05655); experiment: PKC kinase activity assay (Z-lyte), PKCδ; type: biochemical; details: for PKCδ/PKCα Selectivity ratio: PKCδ versus PKCα in vitro
# T1 construct: purchased Invitrogen
# T1 sequence (Q05655 whole entry): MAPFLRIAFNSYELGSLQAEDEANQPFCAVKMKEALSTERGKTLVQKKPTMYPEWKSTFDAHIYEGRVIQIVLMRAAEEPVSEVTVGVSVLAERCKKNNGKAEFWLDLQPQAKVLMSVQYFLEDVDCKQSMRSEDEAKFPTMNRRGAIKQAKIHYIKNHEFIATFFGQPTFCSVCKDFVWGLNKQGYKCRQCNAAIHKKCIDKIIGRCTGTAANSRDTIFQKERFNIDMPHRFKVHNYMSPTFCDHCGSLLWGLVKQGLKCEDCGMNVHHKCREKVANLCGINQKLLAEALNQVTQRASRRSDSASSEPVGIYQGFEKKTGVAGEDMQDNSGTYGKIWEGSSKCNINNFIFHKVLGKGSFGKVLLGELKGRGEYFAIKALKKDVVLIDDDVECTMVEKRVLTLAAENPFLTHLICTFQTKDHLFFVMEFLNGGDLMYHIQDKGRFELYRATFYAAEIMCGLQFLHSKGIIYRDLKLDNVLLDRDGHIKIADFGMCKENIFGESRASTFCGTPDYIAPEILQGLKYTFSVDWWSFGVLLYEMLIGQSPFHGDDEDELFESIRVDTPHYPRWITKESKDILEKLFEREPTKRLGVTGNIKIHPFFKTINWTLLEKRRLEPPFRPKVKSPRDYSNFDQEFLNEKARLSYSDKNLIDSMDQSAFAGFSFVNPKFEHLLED
# Procedure: Assays were carried out using recombinant PKCδ or PKCα, (Invitrogen) and the Z-lyte Kinase Assays (Invitrogen) with a “PKC-kinase-specific” peptide substrate. FRET interactions produce a change in fluorescence (ex455/ex520) upon phosphorylation. The kit was used according to the manufacturer’s instructions.
# MiaPaCa2 = experiment: Tumor spheroid growth, MiaPaCa2 pancreatic cancer; type: cell-based, human; details: p < 0.001
# Panc1 = experiment: Tumor spheroid growth, Panc1 pancreatic cancer; type: cell-based, human; details: p < 0.001
# [1] = test system: pancreatic cancer stem cells (PCSC); experiment: Tumor spheroid formation, PCSC; type: cell-based, human; details: added to culture medium, 96 hr, p≤0.001
# Procedure: as §1
# (§2) Figure 4 Effects of PKCδ inhibitors on human tumor cell spheroid formation. […] Tumor spheroids and adherent cells were collected at 96 hr, stained for CD24 and CD44, and analyzed by flow cytometry. […] After 24, 48 and 72 hr of exposure, cell mass was evaluated by MTT assay. […] Viable cells were enumerated and re-plated in media without BJE6-206, and spheroid numbers were quantitated 96 hr later. p values for comparison between vehicle and BJE6-106 effects on spheroid number were significant after 6 hr of exposure (p≤0.02), and remained significant at all time points thereafter. […]
# [2] = test system: breast cancer stem cells (BCSC); experiment: Tumor spheroid formation, BCSC; type: cell-based, human; details: added to culture medium, 96 hr, p≤0.001
# Procedure: as §1, §2
# Hs578T cells = experiment: Tumor spheroid formation, Hs578T; type: cell-based, human; details: for effect on formation of spheroids, Hs578T: added to culture medium, 96 hr, p≤0.001
# Procedure: as §1
# Figure 4 Effects of PKCδ inhibitors on human tumor cell spheroid formation. (A) Hs578T and MCF7 were plated under adherent or non-adherent conditions. Tumor spheroids and adherent cells were collected at 96 hr, stained for CD24 and CD44, and analyzed by flow cytometry. (B) Hs578T, MCF7, breast cancer stem cells (BCSC) and pancreatic cancer stem cells (PCSC) were plated in tumor spheroid media, in the presence of rottlerin, BJE6-106, or DMSO (Control). Tumor spheroids were enumerated at 96 hr, and normalized to the number of spheroids in the control cultures (assigned an arbitrary value of 100%). p values for comparison between vehicle and rottlerin or BJE6-106 effects were significant (p≤0.001). Photographs are of representative areas of the culture plates. (C) MCF7 cells were exposed BJE6-106 or to rottlerin at the indicated concentrations. The corresponding equivalent volume of solvent (DMSO) was used as a vehicle control (Vehicle). After 24, 48 and 72 hr of exposure, cell mass was evaluated by MTT assay. Control values were normalized to 100%. p values for comparison between vehicle and rottlerin effects on cell number at 24 hr reached significance at 5 μM, and for BJE6-106 at 0.5 μM (p ≤ 0.02), and were significant for all concentrations tested at 48 and 72 hr time points. (D) Hs578T cells were exposed to vehicle or BJE6-106 (1 μM) for 6, 12, 24, 48 or 96 hr. Viable cells were enumerated and re-plated in media without BJE6-206, and spheroid numbers were quantitated 96 hr later. p values for comparison between vehicle and BJE6-106 effects on spheroid number were significant after 6 hr of exposure (p≤0.02), and remained significant at all time points thereafter. Error bars represent SEM.
# [3] = in vitro kinase assay, read-out: PKCδ IC50
SMILES,IC50 (MCF 10C cells),concentration with significant effect on MCF 10C cells (MCF 10C cells),"inhibition at 10 µM (SBcl2; Homo sapiens, SBcl2, rottlerin at 10 μM)","inhibition at 10 µM (DU145; Homo sapiens, DU-145, rottlerin at 10 μM)","IC50 (recombinant PKCδ; PKCδ IC50, in vitro kinase assay)",IC50 (recombinant PKCδ; [3]),"inhibition at 10 µM (MiaPaCa2; Homo sapiens, MIA PaCa-2, rottlerin at 10 μM)","inhibition at 10 µM (Panc1; Homo sapiens, PANC-1, rottlerin at 10 μM)","effect on formation of spheroids, PCSC [1]","effect on formation of spheroids, BCSC [2]","effect on formation of spheroids, Hs578T (Hs578T cells)","inhibition of tumor spheroid growth, SBcl2 (SBcl2; BJE6-106 at 0.5-1.0 μM)","inhibition of tumor spheroid growth, DU145 (DU145; BJE6-106 at 0.5-1.0 μM)",PKCδ/PKCα Selectivity ratio (recombinant PKCδ),PKCδ/PKCα Selectivity ratio (recombinant PKCδ; listed as 3),"inhibition of tumor spheroid growth, MiaPaCa2 (MiaPaCa2; BJE6-106 at 0.5-1.0 μM)","inhibition of tumor spheroid growth, Panc1 (Panc1; BJE6-106 at 0.5-1.0 μM)","exposure time for near maximum inhibition of spheroid formation (washout) (Hs578T cells; BJE6-106 at 1 μM, Hs578T)","exposure time that significantly repressed spheroid formation (washout) (Hs578T cells; BJE6-106 at 1 μM, Hs578T, spheroids counted 96 hr after re-plating)"
"CC(=O)c1c(O)c(C)c(O)c(Cc2c(O)c3c(c(C(=O)/C=C/c4ccccc4)c2O)OC(C)(C)C=C3)c1O [rottlerin, Rottlerin, reference compound]",~1000 nM,5 µM,> 99.5%,> 98%,~5000 nM,3000 nM,> 97%,> 99%,very efficiently inhibited,very efficiently inhibited,very efficiently inhibited,,,,,,,,
"CC1(C)C=Cc2cc(CCn3c4ccccc4c4ccccc43)cc(C=O)c2O1 [BJE6-106, 6-(2-(9H-carbazol-9-yl)ethyl)-2,2-dimethyl-2H-chromene-8-carbaldehyde]",~100 nM,0.1 µM,,,,~50 nM and 50 nM,,,very efficiently inhibited,very efficiently inhibited,very efficiently inhibited,> 99.5%,> 98%,approximately 1000 fold,1000-fold,> 97%,> 99%,≤ 24 h,6 h
